Experimental data: the supplement of paper PMC10307832

Tests used:
Assay in all cases: relative viability (nuclei count vs DMSO), 5 days (fraction); higher = more cells survive
[1] = compound: O=C(/C=C/c1cccnc1)NCCCCC1CCN(C(=O)c2ccccc2)CC1 [Daporinad] + CCNC(=O)c1noc(-c2cc(C(C)C)c(O)cc2O)c1-c1ccc(CN2CCOCC2)cc1 [Luminespib] (partner 0.01 µM)
In short: (§1)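 Lung cancer cell lines in 1536-well plates got either a single drug or a fixed anchor-drug dose together with five library-drug doses (not always all listed) in √10 steps, by pin tool, on the day after seeding. Nuclei were counted after 5 days, and relative viability is the treated-to-vehicle ratio of nuclei counts. Values are medians of duplicate plates.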

[2] = compound: COc1cc(Nc2ncc(F)c(Nc3ccc4c(n3)NC(=O)C(C)(C)O4)n2)cc(OC)c1OC [R406] + O=C(CCCCCCC(=O)Nc1ccccc1)NO [Vorinostat] (partner 1 µM)
In short: as §1

[3] = compound: O=C(/C=C/c1cccnc1)NCCCCC1CCN(C(=O)c2ccccc2)CC1 [Daporinad] + O=C(c1cc(Cc2n[nH]c(=O)c3ccccc23)ccc1F)N1CCN(C(=O)C2CC2)CC1 [Olaparib] (partner 8 µM)
In short: as §1

[4] = compound: O=C(/C=C/c1cccnc1)NCCCCC1CCN(C(=O)c2ccccc2)CC1 [Daporinad] + Cc1cc(Nc2cc(N3CCN(C)CC3)nc(Sc3ccc(NC(=O)C4CC4)cc3)n2)n[nH]1 [Tozasertib] (partner 0.1 µM)
In short: as §1

Cell Line | relative viability ([1]; first compound 0.0005 µM) | relative viability ([1]; first compound 0.001581 µM) | relative viability ([1]; first compound 0.005 µM) | relative viability ([1]; first compound 0.01581 µM) | relative viability ([2]; first compound 0.08 µM) | relative viability ([2]; first compound 0.253 µM) | relative viability ([2]; first compound 0.8 µM) | relative viability ([2]; first compound 2.53 µM) | relative viability ([2]; first compound 8 µM) | relative viability ([3]; first compound 0.0005 µM) | relative viability ([3]; first compound 0.001581 µM) | relative viability ([3]; first compound 0.005 µM) | relative viability ([3]; first compound 0.01581 µM) | relative viability ([4]; first compound 0.0005 µM) | relative viability ([4]; first compound 0.001581 µM) | relative viability ([4]; first compound 0.005 µM) | relative viability ([4]; first compound 0.01581 µM)
NCI-H23 | 0.197 | 0.231 | 0.203 | 0.215 | 0.605 | 0.635 | 0.734 | 0.155 | 0.216 | 0.221 | 0.245 | 0.238 | 0.172 | 0.421 | 0.374 | 0.424 | 0.295
NCI-H596 | 0.919 | 1.04 | 1.05 | 0.479 | 0.659 | 0.681 | 0.72 | 0.38 | 0.263 | 0.647 | 0.562 | 0.542 | 0.441 | 0.879 | 0.929 | 1.1 | 0.65
NCI-H520 | 0.235 | 0.193 | 0.197 | 0.195 | 0.671 | 0.698 | 0.668 | 0.384 | 0.162 | 0.261 | 0.202 | 0.221 | 0.153 | 0.446 | 0.507 | 0.25 | 0.184
EKVX | 0.889 | 0.933 | 0.839 | 0.922 | 0.78 | 0.567 | 0.757 | 0.6 | 0.653 | 0.861 | 0.912 | 0.788 | 0.615 | 0.392 | 0.457 | 0.301 | 0.396
NCI-H1944 | 0.85 | 0.802 | 0.829 | 0.729 | 0.504 | 0.585 | 0.566 | 0.466 | 0.45 | 0.407 | 0.393 | 0.42 | 0.386 | 0.273 | 0.252 | 0.261 | 0.286
EPLC-272H | 0.237 | 0.433 | 0.388 | 0.393 | 0.29 | 0.444 | 0.511 | 0.286 | 0.168 | 0.72 | 0.704 | 0.581 | 0.442 | 0.256 | 0.292 | 0.493 | 0.4
NCI-H1395 | 0.774 | 0.657 | 0.722 | 0.782 | 0.633 | 0.731 | 0.843 | 0.399 | 0.417 | 0.436 | 0.471 | 0.432 | 0.425 | 0.7 | 0.764 | 0.771 | 0.839
NCI-H2126 | 0.883 | 0.897 | 0.921 | 0.924 | 0.833 | 0.797 | 0.819 | 0.581 | 0.707 | 0.945 | 0.953 | 0.883 | 0.863 | 0.919 | 0.888 | 0.875 | 0.93
LXF-289 | 0.668 | 0.75 | 0.766 | 0.657 | 0.632 | 0.772 | 0.787 | 0.654 | 0.616 | 0.952 | 1.13 | 0.929 | 0.945 | 0.23 | 0.188 | 0.176 | 0.148
NCI-H2009 | 1.02 | 1.08 | 1 | 0.702 | 0.711 | 0.749 | 0.785 | 0.739 | 0.363 | 0.596 | 0.58 | 0.268 | 0.219 | 0.76 | 0.706 | 0.724 | 0.555
SK-MES-1 | 0.796 | 0.839 | 0.874 | 0.819 | 1.05 | 1.14 | 1.21 | 0.996 | 0.158 | 0.603 | 0.636 | 0.423 | 0.323 | 0.85 | 0.948 | 1.08 | 0.865
NCI-H2405 | 0.853 | 0.884 | 1.01 | 0.723 | 1 | 1.39 | 1.14 | 0.624 | 0.245 | 0.848 | 0.841 | 0.639 | 0.407 | 0.82 | 0.783 | 0.954 | 0.888
NCI-H1755 | 0.31 | 0.381 | 0.541 | 0.488 | 0.778 | 0.861 | 0.757 | 0.642 | 0.468 | 0.838 | 0.891 | 0.84 | 0.843 | 0.449 | 0.544 | 0.533 | 0.638
LOU-NH91 | 0.331 | 0.364 | 0.291 | 0.382 | 0.926 | 0.993 | 0.914 | 0.53 | 0.498 | 0.874 | 0.977 | 0.803 | 0.837 | 0.754 | 0.699 | 0.792 | 0.906
NCI-H3122 | 0.0688 | 0.0544 | 0.0785 | 0.0818 | 0.884 | 1.1 | 1.03 | 0.923 | 0.928 | 0.564 | 0.565 | 0.501 | 0.421 | 0.376 | 0.403 | 0.421 | 0.405
HCC-827 | 0.639 | 0.747 | 0.704 | 0.732 | 0.791 | 0.853 | 0.892 | 0.788 | 0.817 | 0.612 | 0.728 | 0.608 | 0.504 | 0.428 | 0.445 | 0.513 | 0.446
